Assay results as given in patent US20070128217A1 (priority 2003, published 2007).

Key:
[1] = system: control sera (pooled serum of ten healthy LUMC hospital workers; commercial negative donor pooled serum from the Dutch bloodbank); type: binding, human; design: Binding of Control serum LUMC to linear peptides / Binding of Control serum Blood-bank to linear peptides / Binding of Control serum LUMC to looped peptides / Binding of Control Serum Blood-Bank to Looped peptides / Binding of Control serum LUMC to linear peptides of the protein M of SARS-CoV Urbani / Binding of Control serum Blood-bank to linear peptides of the protein M of SARS-CoV Urbani / Binding of Control serum LUMC to looped peptides of the protein M of SARS-CoV Urbani / Binding of Control Serum Blood-Bank to Looped peptides of the protein M of SARS-CoV Urbani: unit not given here
[2] = system: rabbit serum obtained by immunizing a rabbit with the SARS-CoV strain Frankfurt 1; type: binding; design: Binding of a rabbit serum to linear peptides / Binding of a rabbit serum to looped peptides / Rabbit serum linear peptides / Rabbit serum looped peptides / Binding of a rabbit serum to linear peptides of protein N of SARS-CoV Urbani (Rabbit serum linear peptides) / Binding of a rabbit serum to looped/cyclic peptides of protein N of SARS-CoV Urbani (Rabbit serum looped peptides): unit not given here
[3] = system: antibodies in sera from SARS patients (sera 1a, 1b, 2, 6, 37, 62, London, SARS-yellow, SARS-green); type: binding, human; design: Binding of serum 6 to linear peptides of protein X1 of SARS-CoV Urbani / Binding of serum 37 to linear peptides of protein X1 of SARS-CoV Urbani / Binding of serum 6 to looped/cyclic peptide (PEPSCAN-ELISA) / Binding of serum 37 to looped/cyclic peptide (PEPSCAN-ELISA) / Binding of serum 37 to looped/cyclic peptides of protein X1 of SARS-CoV Urbani / Binding of serum 6 to linear peptides of protein X2 / Binding of serum 37 to linear peptides of protein X2 / Binding of serum 37 to looped/cyclic peptides of protein X2 of SARS-CoV Urbani / Binding of serum 6 to linear peptides of protein M of SARS-CoV Urbani / Binding of serum 37 to linear peptides of protein M of SARS-CoV Urbani / Binding of serum 6 to looped/cyclic peptides of protein M of SARS-CoV Urbani / Binding of serum 37 to looped/cyclic peptides of protein M of SARS-CoV Urbani / Binding of serum 6 to linear peptides of protein X3 of SARS-CoV Urbani / Binding of serum 37 to linear peptides of protein X3 of SARS-CoV Urbani / Binding of serum 37 to looped/cyclic peptides of protein X3 of SARS-CoV Urbani / Binding of serum 6 to linear peptides of protein X4 of SARS-CoV Urbani / Binding of serum 37 to linear peptides of protein X4 of SARS-CoV Urbani / Binding of serum 37 to looped/cyclic peptides of protein X4 of SARS-CoV Urbani / Binding of serum 6 to linear peptides of protein X5 of SARS-CoV Urbani / Binding of serum 37 to linear peptides of protein X5 of SARS-CoV Urbani / Binding of serum 37 to looped/cyclic peptides of protein X5 of SARS-CoV Urbani / Binding of serum 6 to linear peptides of protein N of SARS-CoV Urbani / Binding of serum 37 to linear peptides of protein N of SARS-CoV Urbani / Binding of serum 6 to linear peptide (PEPSCAN-ELISA) / Binding of serum 1a to looped/cyclic peptides of protein N of SARS-CoV Urbani / Binding of serum 1b to looped/cyclic peptides of protein N of SARS-CoV Urbani / Binding of serum 2 to looped/cyclic peptides of protein N of SARS-CoV Urbani / Binding of serum 6 to looped/cyclic peptides of protein N of SARS-CoV Urbani / Binding of serum 37 to looped/cyclic peptides of protein N of SARS-CoV Urbani / Binding of serum 62 to looped/cyclic peptides of protein N of SARS-CoV Urbani / Binding of serum London to looped/cyclic peptides of protein N of SARS-CoV Urbani / Binding of serum SARS-green to looped/cyclic peptides of protein N of SARS-CoV Urbani: unit not given here

TPNVTINCQDPAGGA
Binding of Control Serum Blood-Bank to Looped peptides [1]: 0.3
Binding of Control serum Blood-bank to linear peptides [1]: 0.6
Binding of Control serum LUMC to linear peptides [1]: 0.5
Binding of Control serum LUMC to looped peptides [1]: 0.2
Rabbit serum linear peptides [2]: 0.0
Rabbit serum looped peptides [2]: 0.1
Binding of serum 1a to linear peptides of protein X5 of SARS-CoV Urbani [3]: 0.8
Binding of serum 1a to looped/cyclic peptides of protein X5 of SARS-CoV Urbani [3]: 0.4
Binding of serum 1b to linear peptides of protein X5 of SARS-CoV Urbani [3]: 0.4
Binding of serum 2 to linear peptides of protein X5 of SARS-CoV Urbani [3]: 0.4
Binding of serum 2 to looped/cyclic peptides of protein X5 of SARS-CoV Urbani [3]: 0.3
Binding of serum 6 to linear peptides of protein X5 of SARS-CoV Urbani [3]: 0.1
Binding of serum 6 to looped/cyclic peptides of protein X5 of SARS-CoV Urbani [3]: 0.1
Binding of serum 37 to linear peptides of protein X5 of SARS-CoV Urbani [3]: 0.8
Binding of serum 37 to looped/cyclic peptides of protein X5 of SARS-CoV Urbani [3]: 0.4
Binding of serum 62 to linear peptides of protein X5 of SARS-CoV Urbani [3]: 0.5
Binding of serum 62 to looped/cyclic peptides of protein X5 of SARS-CoV Urbani [3]: 0.2
Binding of serum London to linear peptides of protein X5 of SARS-CoV Urbani [3]: 0.6
Binding of serum London to looped/cyclic peptides of protein X5 of SARS-CoV Urbani [3]: 0.1
Binding of serum SARS-green to linear peptides of protein X5 of SARS-CoV Urbani [3]: 0.4
Binding of serum SARS-green to looped/cyclic peptides of protein X5 of SARS-CoV Urbani [3]: 0.2
Binding of serum SARS-yellow to linear peptides of protein X5 of SARS-CoV Urbani [3]: 0.0
Binding of serum SARS-yellow to looped/cyclic peptides of protein X5 of SARS-CoV Urbani [3]: 0.2

TRGNTYSTAWLCALG
Binding of Control Serum Blood-Bank to Looped peptides [1]: 0.4
Binding of Control serum Blood-bank to linear peptides [1]: 0.7
Binding of Control serum LUMC to linear peptides [1]: 0.6
Binding of Control serum LUMC to looped peptides [1]: 0.6
Rabbit serum linear peptides [2]: 0.7
Rabbit serum looped peptides [2]: 0.0
Binding of serum 1a to linear peptides of protein X5 of SARS-CoV Urbani [3]: 0.8
Binding of serum 1a to looped/cyclic peptides of protein X5 of SARS-CoV Urbani [3]: 0.4
Binding of serum 1b to linear peptides of protein X5 of SARS-CoV Urbani [3]: 0.6
Binding of serum 1b to looped/cyclic peptides of protein X5 of SARS-CoV Urbani [3]: 0.1
Binding of serum 2 to linear peptides of protein X5 of SARS-CoV Urbani [3]: 0.6
Binding of serum 2 to looped/cyclic peptides of protein X5 of SARS-CoV Urbani [3]: 0.4
Binding of serum 6 to linear peptides of protein X5 of SARS-CoV Urbani [3]: 0.6
Binding of serum 6 to looped/cyclic peptides of protein X5 of SARS-CoV Urbani [3]: 0.3
Binding of serum 37 to linear peptides of protein X5 of SARS-CoV Urbani [3]: 0.8
Binding of serum 37 to looped/cyclic peptides of protein X5 of SARS-CoV Urbani [3]: 0.4
Binding of serum 62 to linear peptides of protein X5 of SARS-CoV Urbani [3]: 0.8
Binding of serum 62 to looped/cyclic peptides of protein X5 of SARS-CoV Urbani [3]: 0.6
Binding of serum London to linear peptides of protein X5 of SARS-CoV Urbani [3]: 0.7
Binding of serum London to looped/cyclic peptides of protein X5 of SARS-CoV Urbani [3]: 0.2
Binding of serum SARS-green to linear peptides of protein X5 of SARS-CoV Urbani [3]: 0.6
Binding of serum SARS-green to looped/cyclic peptides of protein X5 of SARS-CoV Urbani [3]: 0.3
Binding of serum SARS-yellow to linear peptides of protein X5 of SARS-CoV Urbani [3]: 0.5
Binding of serum SARS-yellow to looped/cyclic peptides of protein X5 of SARS-CoV Urbani [3]: 0.3

TRHTYQLRARSVSPK
Binding of Control Serum Blood-Bank to Looped peptides [1]: 0.7
Binding of Control serum Blood-bank to linear peptides [1]: 0.9
Binding of Control serum LUMC to linear peptides [1]: 0.9
Binding of Control serum LUMC to looped peptides [1]: 0.7
Recognition of the peptide by the rabbit serum [2]: recognized
Binding of serum 1a to linear peptides of protein X4 of SARS-CoV Urbani [3]: 0.8
Binding of serum 1a to looped/cyclic peptides of protein X4 of SARS-CoV Urbani [3]: 0.8
Binding of serum 1b to linear peptides of protein X4 of SARS-CoV Urbani [3]: 0.7
Binding of serum 1b to looped/cyclic peptides of protein X4 of SARS-CoV Urbani [3]: 0.4
Binding of serum 2 to linear peptides of protein X4 of SARS-CoV Urbani [3]: 0.7
Binding of serum 2 to looped/cyclic peptides of protein X4 of SARS-CoV Urbani [3]: 0.8
Binding of serum 6 to linear peptides of protein X4 of SARS-CoV Urbani [3]: 1.3
Binding of serum 6 to looped/cyclic peptides of protein X4 of SARS-CoV Urbani [3]: 0.9
Binding of serum 37 to linear peptides of protein X4 of SARS-CoV Urbani [3]: 1.0
Binding of serum 37 to looped/cyclic peptides of protein X4 of SARS-CoV Urbani [3]: 0.7
Binding of serum 62 to linear peptides of protein X4 of SARS-CoV Urbani [3]: 0.9
Binding of serum 62 to looped/cyclic peptides of protein X4 of SARS-CoV Urbani [3]: 0.6
Binding of serum London to linear peptides of protein X4 of SARS-CoV Urbani [3]: 0.8
Binding of serum London to looped/cyclic peptides of protein X4 of SARS-CoV Urbani [3]: 0.4
Binding of serum SARS-green to linear peptides of protein X4 of SARS-CoV Urbani [3]: 0.6
Binding of serum SARS-green to looped/cyclic peptides of protein X4 of SARS-CoV Urbani [3]: 0.7
Binding of serum SARS-yellow to linear peptides of protein X4 of SARS-CoV Urbani [3]: 0.9
Binding of serum SARS-yellow to looped/cyclic peptides of protein X4 of SARS-CoV Urbani [3]: 0.7

TRSMWSFNPETNILL
Binding of Control Serum Blood-Bank to Looped peptides of the protein M of SARS-CoV Urbani [1]: 0.9
Binding of Control serum Blood-bank to linear peptides of the protein M of SARS-CoV Urbani [1]: 0.7
Binding of Control serum LUMC to linear peptides of the protein M of SARS-CoV Urbani [1]: 0.8
Binding of Control serum LUMC to looped peptides of the protein M of SARS-CoV Urbani [1]: 0.9
Rabbit serum linear peptides [2]: 0.1
Rabbit serum looped peptides [2]: 0.3
Binding of serum 1a to linear peptides of protein M of SARS-CoV Urbani [3]: 0.8
Binding of serum 1a to looped/cyclic peptides of protein M of SARS-CoV Urbani [3]: 1.0
Binding of serum 1b to linear peptides of protein M of SARS-CoV Urbani [3]: 0.7
Binding of serum 1b to looped/cyclic peptides of protein M of SARS-CoV Urbani [3]: 0.4
Binding of serum 2 to linear peptides of protein M of SARS-CoV Urbani [3]: 0.5
Binding of serum 2 to looped/cyclic peptides of protein M of SARS-CoV Urbani [3]: 0.8
Binding of serum 6 to linear peptides of protein M of SARS-CoV Urbani [3]: 0.5
Binding of serum 6 to looped/cyclic peptides of protein M of SARS-CoV Urbani [3]: 0.9
Binding of serum 37 to linear peptides of protein M of SARS-CoV Urbani [3]: 0.5
Binding of serum 37 to looped/cyclic peptides of protein M of SARS-CoV Urbani [3]: 1.1
Binding of serum 62 to linear peptides of protein M of SARS-CoV Urbani [3]: 0.4
Binding of serum 62 to looped/cyclic peptides of protein M of SARS-CoV Urbani [3]: 1.1
Binding of serum London to linear peptides of protein M of SARS-CoV Urbani [3]: 0.3
Binding of serum London to looped/cyclic peptides of protein M of SARS-CoV Urbani [3]: 0.3
Binding of serum SARS-green to linear peptides of protein M of SARS-CoV Urbani [3]: 0.5
Binding of serum SARS-green to looped/cyclic peptides of protein M of SARS-CoV Urbani [3]: 0.5
Binding of serum SARS-yellow to linear peptides of protein M of SARS-CoV Urbani [3]: 0.3
Binding of serum SARS-yellow to looped/cyclic peptides of protein M of SARS-CoV Urbani [3]: 0.7

TSCELYHYQECVRGT
Binding of Control Serum Blood-Bank to Looped peptides [1]: 0.8
Binding of Control serum Blood-bank to linear peptides [1]: 0.6
Binding of Control serum LUMC to linear peptides [1]: 0.6
Binding of Control serum LUMC to looped peptides [1]: 0.8
Rabbit serum linear peptides [2]: 0.4
Rabbit serum looped peptides [2]: 0.2
Binding of serum 1a to linear peptides of protein X4 of SARS-CoV Urbani [3]: 0.7
Binding of serum 1a to looped/cyclic peptides of protein X4 of SARS-CoV Urbani [3]: 0.9
Binding of serum 1b to linear peptides of protein X4 of SARS-CoV Urbani [3]: 0.6
Binding of serum 1b to looped/cyclic peptides of protein X4 of SARS-CoV Urbani [3]: 0.9
Binding of serum 2 to linear peptides of protein X4 of SARS-CoV Urbani [3]: 0.3
Binding of serum 2 to looped/cyclic peptides of protein X4 of SARS-CoV Urbani [3]: 0.7
Binding of serum 6 to linear peptides of protein X4 of SARS-CoV Urbani [3]: 0.7
Binding of serum 6 to looped/cyclic peptides of protein X4 of SARS-CoV Urbani [3]: 0.9
Binding of serum 37 to linear peptides of protein X4 of SARS-CoV Urbani [3]: 0.7
Binding of serum 37 to looped/cyclic peptides of protein X4 of SARS-CoV Urbani [3]: 0.7
Binding of serum 62 to linear peptides of protein X4 of SARS-CoV Urbani [3]: 0.8
Binding of serum 62 to looped/cyclic peptides of protein X4 of SARS-CoV Urbani [3]: 0.7
Binding of serum London to linear peptides of protein X4 of SARS-CoV Urbani [3]: 0.7
Binding of serum London to looped/cyclic peptides of protein X4 of SARS-CoV Urbani [3]: 0.4
Binding of serum SARS-green to linear peptides of protein X4 of SARS-CoV Urbani [3]: 0.5
Binding of serum SARS-green to looped/cyclic peptides of protein X4 of SARS-CoV Urbani [3]: 0.7
Binding of serum SARS-yellow to linear peptides of protein X4 of SARS-CoV Urbani [3]: 0.3
Binding of serum SARS-yellow to looped/cyclic peptides of protein X4 of SARS-CoV Urbani [3]: 0.4
